Test results published in patent US11753407B2, “Compounds for treating spinal muscular atrophy” (PTC Therapeutics, Inc., priority 2012, dated 2023).

Tests used:
[1] = test system: Smn protein in SMA patient fibroblast cells (GM03813); assay: Smn protein assay in cultured cells (SMN HTRF); format: cell-based, human; conditions: SMA patient fibroblast cells, 48 hours; for EC1.5x for Smn protein expression: 7-point concentration curve, SMN HTRF, concentration producing 1.5 times Smn protein vs DMSO vehicle control; for maximum fold (Fold) increase of Smn protein: 7-point concentration data, fold relative to vehicle control
Procedure, shortened: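 Smn protein abundance in treated SMA fibroblasts was measured by HTRF after 48 h compound exposure. The reported EC1.5× is the concentration producing 1.5 times vehicle Smn levels.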

[2] = test system: SMN2 minigene mRNA (SMN2-A minigene) in HEK293H cells; assay: SMN2 minigene mRNA splicing RT-qPCR assay in cultured cells; format: cell-based, human; conditions: Homo sapiens, HEK293-H; concentration increasing full length SMN2 mRNA 1.5-fold relative to vehicle-treated cells; HEK293H cells with SMN2-A minigene, 24 hours, 7-point concentration data; read-out: EC1.5x for production of full length SMN2 mRNA
Procedure, shortened: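 Potency reflects the concentration that lifts full-length SMN2 minigene mRNA 1.5-fold above vehicle in stably transfected HEK293H cells after 24 h of treatment. Transcript abundance came from RT-qPCR as (1+E)^−Ct, normalized to GAPDH; endogenous SMN1/SMN2 are not detected.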

| SMILES | melting point [°C] | EC1.5x for Smn protein expression [1] | maximum fold (Fold) increase of Smn protein [1] | EC (1.5-fold increase) [2] [µM] |
| --- | --- | --- | --- | --- |
| Cc1cn2cc(-c3cc(=O)n4cc(N5CCN(C)CC5)ccc4n3)cc(CO)c2n1 [Compound 677, 2-[8-(hydroxymethyl)-2-methylimidazo[1,2-a]pyridin-6-yl]-7-(4-methylpiperazin-1-yl)-4H-pyrido[1,2-a]pyrimidin-4-one] | 262 to 266 | *** (an EC1.5× between >0.3 μM and ≤1 μM is indicated by three stars (***)) | ***** (a fold increase >1.65 is indicated by five stars (*****)) | < 0.1 |
| CCN1CCN(c2ccc3nc(-c4cc(CO)c5nc(C)cn5c4)cc(=O)n3c2)CC1 [Compound 678, 7-(4-ethylpiperazin-1-yl)-2-[8-(hydroxymethyl)-2-methylimidazo[1,2-a]pyridin-6-yl]-4H-pyrido[1,2-a]pyrimidin-4-one] | 258 to 262 | **** (an EC1.5x≤0.3 μM is indicated by four stars (****)) | ***** (a fold increase >1.65 is indicated by five stars (*****)) | < 0.1 |
| Cc1nc2ccc(-c3cc(=O)n4cc(N5CCN(C)CC5)ccc4n3)cc2[nH]1 [Compound 689, 2-(2-methyl-1H-benzimidazol-6-yl)-7-(4-methylpiperazin-1-yl)-4H-pyrido[1,2-a]pyrimidin-4-one] | 292 to 294 | *** (an EC1.5× between >0.3 μM and ≤1 μM is indicated by three stars (***)) | **** (a fold increase between >1.5 and ≤1.65 is indicated by four stars (****)) | 0.1 to 0.3 |
| CCN1CCN(c2ccc3nc(-c4ccc5nc(C)[nH]c5c4)cc(=O)n3c2)CC1 [Compound 690, 7-(4-ethylpiperazin-1-yl)-2-(2-methyl-1H-benzimidazol-6-yl)-4H-pyrido[1,2-a]pyrimidin-4-one] | 283 to 285 | *** (an EC1.5× between >0.3 μM and ≤1 μM is indicated by three stars (***)) | **** (a fold increase between >1.5 and ≤1.65 is indicated by four stars (****)) | < 0.1 |
| Cc1cn2cc(-c3cc(=O)n4nc(C5CCNCC5)ccc4n3)cc(C)c2n1 [Compound 691, 2-(2,8-dimethylimidazo[1,2-a]pyridin-6-yl)-7-(piperidin-4-yl)-4H-pyrimido[1,2-b]pyridazin-4-one] | 215 to 217 | **** (an EC1.5x≤0.3 μM is indicated by four stars (****)) | ***** (a fold increase >1.65 is indicated by five stars (*****)) | < 0.1 |
| Cc1cn2cc(-c3cc(=O)n4nc(C5CCNCC5)ccc4n3)ccc2n1 [Compound 692, 2-(2-methylimidazo[1,2-a]pyridin-6-yl)-7-(piperidin-4-yl)-4H-pyrimido[1,2-b]pyridazin-4-one] | 249 to 251 | *** (an EC1.5× between >0.3 μM and ≤1 μM is indicated by three stars (***)) | ***** (a fold increase >1.65 is indicated by five stars (*****)) | 0.1 to 0.3 |
| Cc1cn2cc(-c3cc(=O)n4cc(N5C[C@@H](C)N[C@@H](C)C5)ccc4n3)cc2c(C)n1 [Compound 695, 7-[(3R,5S)-3,5-dimethylpiperazin-1-yl]-2-(1,3-dimethylpyrrolo[1,2-a]pyrazin-7-yl)-4H-pyrido[1,2-a]pyrimidin-4-one] | 254 to 256 | **** (an EC1.5x≤0.3 μM is indicated by four stars (****)) | ***** (a fold increase >1.65 is indicated by five stars (*****)) | < 0.1 |

Continued, in another order:

| melting point [°C] | SMILES | EC1.5x for Smn protein expression [1] | maximum fold (Fold) increase of Smn protein [1] | EC (1.5-fold increase) [2] [µM] |
| --- | --- | --- | --- | --- |
| 228 to 230 | CCc1nc(C)cn2nc(-c3cc(=O)n4cc(C5CCN(C(C)C)CC5)ccc4n3)cc12 [Compound 679, 2-(4-ethyl-6-methylpyrazolo[1,5-a]pyrazin-2-yl)-7-[1-(propan-2-yl)piperidin-4-yl]-4H-pyrido[1,2-a]pyrimidin-4-one] | **** (an EC1.5x≤0.3 μM is indicated by four stars (****)) | ***** (a fold increase >1.65 is indicated by five stars (*****)) | < 0.1 |
| 196 to 199 | CCc1nc(C)cn2nc(-c3cc(=O)n4cc(C5CCN(C6CC6)CC5)ccc4n3)cc12 [Compound 680, 7-(1-cyclopropylpiperidin-4-yl)-2-(4-ethyl-6-methylpyrazolo[1,5-a]pyrazin-2-yl)-4H-pyrido[1,2-a]pyrimidin-4-one] | **** (an EC1.5x≤0.3 μM is indicated by four stars (****)) | ***** (a fold increase >1.65 is indicated by five stars (*****)) | < 0.1 |
| 227 to 229 | CCc1nc(C)cn2nc(-c3cc(=O)n4cc(C5CCN(C6CCC6)CC5)ccc4n3)cc12 [Compound 681, 7-(1-cyclobutylpiperidin-4-yl)-2-(4-ethyl-6-methylpyrazolo[1,5-a]pyrazin-2-yl)-4H-pyrido[1,2-a]pyrimidin-4-one] | **** (an EC1.5x≤0.3 μM is indicated by four stars (****)) | ***** (a fold increase >1.65 is indicated by five stars (*****)) | < 0.1 |
| 190 to 192 | CCc1nc(C)cn2nc(-c3cc(=O)n4cc(C5CCN(C6COC6)CC5)ccc4n3)cc12 [Compound 682, 2-(4-ethyl-6-methylpyrazolo[1,5-a]pyrazin-2-yl)-7-[1-(oxetan-3-yl)piperidin-4-yl]-4H-pyrido[1,2-a]pyrimidin-4-one] | ** (an EC1.5× between >1 μM and ≤3 μM is indicated by two stars (**)) | ***** (a fold increase >1.65 is indicated by five stars (*****)) | 0.3 to 1 |
| 226 to 229 | Cc1cn2nc(-c3cc(=O)n4cc(N5CCNCC5)ccc4n3)cc2c(C2CC2)n1 [Compound 683, 2-(4-cyclopropyl-6-methylpyrazolo[1,5-a]pyrazin-2-yl)-7-(piperazin-1-yl)-4H-pyrido[1,2-a]pyrimidin-4-one] | *** (an EC1.5× between >0.3 μM and ≤1 μM is indicated by three stars (***)) | ***** (a fold increase >1.65 is indicated by five stars (*****)) | < 0.1 |
| 238 to 240 | Cc1cn2nc(-c3cc(=O)n4cc(N5CCN(C)CC5)ccc4n3)cc2c(C2CC2)n1 [Compound 684, 2-(4-cyclopropyl-6-methylpyrazolo[1,5-a]pyrazin-2-yl)-7-(4-methylpiperazin-1-yl)-4H-pyrido[1,2-a]pyrimidin-4-one] | *** (an EC1.5× between >0.3 μM and ≤1 μM is indicated by three stars (***)) | ***** (a fold increase >1.65 is indicated by five stars (*****)) | 0.1 to 0.3 |
| 236 to 238 | CCN1CCN(c2ccc3nc(-c4cc5c(C6CC6)nc(C)cn5n4)cc(=O)n3c2)CC1 [Compound 685, 2-(4-cyclopropyl-6-methylpyrazolo[1,5-a]pyrazin-2-yl)-7-(4-ethylpiperazin-1-yl)-4H-pyrido[1,2-a]pyrimidin-4-one] | ** (an EC1.5× between >1 μM and ≤3 μM is indicated by two stars (**)) | **** (a fold increase between >1.5 and ≤1.65 is indicated by four stars (****)) | 0.1 to 0.3 |
| 239 to 241 | Cc1cn2nc(-c3cc(=O)n4cc(N5CCN(CCO)CC5)ccc4n3)cc2c(C2CC2)n1 [Compound 686, 2-(4-cyclopropyl-6-methylpyrazolo[1,5-a]pyrazin-2-yl)-7-[4-(2-hydroxyethyl)piperazin-1-yl]-4H-pyrido[1,2-a]pyrimidin-4-one] | ** (an EC1.5× between >1 μM and ≤3 μM is indicated by two stars (**)) | ***** (a fold increase >1.65 is indicated by five stars (*****)) | 0.3 to 1 |
| 185 to 187 | CCCN1CCC(c2ccc3nc(-c4cc5c(C)nc(C)cn5n4)cc(=O)n3c2)CC1 [Compound 687, 2-(4,6-dimethylpyrazolo[1,5-a]pyrazin-2-yl)-7-(1-propylpiperidin-4-yl)-4H-pyrido[1,2-a]pyrimidin-4-one] | **** (an EC1.5x≤0.3 μM is indicated by four stars (****)) | **** (a fold increase between >1.5 and ≤1.65 is indicated by four stars (****)) | < 0.1 |
| 236 to 238 | CCc1nc(C)cn2nc(-c3cc(=O)n4cc(C5CCN(C6COC(C)(C)OC6)CC5)ccc4n3)cc12 [Compound 693, 7-[1-(2,2-dimethyl-1,3-dioxan-5-yl)piperidin-4-yl]-2-(4-ethyl-6-methylpyrazolo[1,5-a]pyrazin-2-yl)-4H-pyrido[1,2-a]pyrimidin-4-one] | ** (an EC1.5× between >1 μM and ≤3 μM is indicated by two stars (**)) | **** (a fold increase between >1.5 and ≤1.65 is indicated by four stars (****)) | 1 to 3 |
